Measurements as given in patent publication US10294202B2, “Pyrrolidinones as herbicides” (FMC Corporation, priority 2013, dated 2019).

Key:
morningglory = assay: Test A pre-/postemergence herbicide test; assay type: in vivo, Ipomoea spp.; conditions: for Morningglory plant response rating: Preemergence, visual rating on 0 to 100 scale (0 no effect, 100 complete control)
How it was run: (§1)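 Visual injury ratings, 0 = no effect, 100 = complete control, taken ~10 days after treatment against untreated greenhouse controls. Preemergence: directed soil spray onto seeded loam/sand pots. Postemergence: spray onto plants at one- to two-leaf stage, 2–10 cm tall.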

crabgrass, large = assay: Test A pre-/postemergence herbicide test; assay type: in vivo, Digitaria sanguinalis; conditions: for Crabgrass, Large plant response rating: Preemergence, visual rating on 0 to 100 scale (0 no effect, 100 complete control)
How it was run: as §1

corn = assay: Test A pre-/postemergence herbicide test; assay type: in vivo, Zea mays; conditions: for Corn plant response rating: Preemergence, visual rating on 0 to 100 scale (0 no effect, 100 complete control)
How it was run: as §1

giant foxtail = assay: Test A pre-/postemergence herbicide test; assay type: in vivo, Setaria faberii; conditions: for Foxtail, Giant plant response rating: Preemergence, visual rating on 0 to 100 scale (0 no effect, 100 complete control)
How it was run: as §1

barnyardgrass [1] = assay: Test B flooded paddy test; assay type: in vivo, Echinochloa crus-galli; conditions: 250 g ai/ha, Flood; scale of 0 to 100 where 0 is no effect and 100 is complete control
How it was run: (§2)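 Plants grown to 2-leaf stage; pots flooded 3 cm above soil and compound applied directly into paddy water, depth held throughout. Visual rating against untreated controls after 13 to 15 days in greenhouse, 0 (no effect) to 100 (complete control).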

rice = assay: Test B flooded paddy test; assay type: in vivo, Oryza sativa; conditions: 250 g ai/ha, Flood; scale of 0 to 100 where 0 is no effect and 100 is complete control
How it was run: as §2

wheat = assay: Test A pre-/postemergence herbicide test; assay type: in vivo, Triticum aestivum; conditions: for Wheat plant response rating: Preemergence, visual rating on 0 to 100 scale (0 no effect, 100 complete control)
How it was run: as §1

pigweed = assay: Test A pre-/postemergence herbicide test; assay type: in vivo, Amaranthus retroflexus; conditions: for Pigweed plant response rating: Preemergence, visual rating on 0 to 100 scale (0 no effect, 100 complete control)
How it was run: as §1

ducksalad = assay: Test B flooded paddy test; assay type: in vivo, Heteranthera limosa; conditions: 250 g ai/ha, Flood; scale of 0 to 100 where 0 is no effect and 100 is complete control
How it was run: as §2

velvetleaf = assay: Test A pre-/postemergence herbicide test; assay type: in vivo, Abutilon theophrasti; conditions: for Velvetleaf plant response rating: Preemergence, visual rating on 0 to 100 scale (0 no effect, 100 complete control)
How it was run: as §1

barnyardgrass [2] = assay: Test A pre-/postemergence herbicide test; assay type: in vivo, Echinochloa crus-galli; conditions: for Barnyardgrass plant response rating: Preemergence, visual rating on 0 to 100 scale (0 no effect, 100 complete control)
How it was run: as §1

sedge, umbrella = assay: Test B flooded paddy test; assay type: in vivo, Cyperus difformis; conditions: 250 g ai/ha, Flood; scale of 0 to 100 where 0 is no effect and 100 is complete control
How it was run: as §2

[3] = Postemergence, 125 g ai/ha, 0 to 100 scale, 0 no effect, 100 complete control
[4] = Postemergence, 500 g ai/ha, 0 to 100 scale (0 no effect, 100 complete control)
[5] = preemergence, 500 g ai/ha, 0 to 100 scale
[6] = preemergence, 500 g ai/ha, 0 to 100 scale (0 no effect, 100 complete control)

O=C1NCC(c2ccccc2)C1C(=O)Nc1cccc(F)c1F (stereo not drawn) [Compound 65]
Plant response rating, Morningglory (morningglory; [3]): 0 | Plant response rating, Morningglory (morningglory; [4]): 20 | Morningglory plant response rating (morningglory; 125 g ai/ha): 0 | Plant response rating, Morningglory (morningglory; [5]): 0 | Plant response rating, Crabgrass, Large (crabgrass, large; [3]): 90 | Plant response rating, Crabgrass, Large (crabgrass, large; [4]): 90 | Crabgrass, Large plant response rating (crabgrass, large; 125 g ai/ha): 90 | Plant response rating, Crabgrass, Large (crabgrass, large; [5]): 90 | Plant response rating, Corn (corn; [3]): 0 | Plant response rating, Corn (corn; [4]): 20 | Corn plant response rating (corn; 125 g ai/ha): 0 | Plant response rating, Corn (corn; [5]): 0 | Plant response rating, Foxtail, Giant (giant foxtail; [3]): 50 | Plant response rating, Foxtail, Giant (giant foxtail; [4]): 90 | Foxtail, Giant plant response rating (giant foxtail; 125 g ai/ha): 80 | Plant response rating, Foxtail, Giant (giant foxtail; [5]): 90 | Plant response rating, Barnyardgrass (barnyardgrass [1]): 0 | Plant response rating, Rice (rice): 0 | Plant response rating, Wheat (wheat; [3]): 0 | Plant response rating, Wheat (wheat; [4]): 20 | Wheat plant response rating (wheat; 125 g ai/ha): 0 | Plant response rating, Wheat (wheat; [5]): 0 | Plant response rating, Pigweed (pigweed; [3]): 0 | Plant response rating, Pigweed (pigweed; [4]): 0 | Pigweed plant response rating (pigweed; 125 g ai/ha): 0 | Plant response rating, Pigweed (pigweed; [5]): 0 | Plant response rating, Ducksalad (ducksalad): 80 | Plant response rating, Velvetleaf (velvetleaf; [3]): 0 | Plant response rating, Velvetleaf (velvetleaf; [4]): 30 | Velvetleaf plant response rating (velvetleaf; 125 g ai/ha): 0 | Plant response rating, Velvetleaf (velvetleaf; [5]): 0 | Plant response rating, Barnyardgrass (barnyardgrass [2]; [3]): 20 | Plant response rating, Barnyardgrass (barnyardgrass [2]; [4]): 70 | Barnyardgrass plant response rating (barnyardgrass [2]; 125 g ai/ha): 40 | Plant response rating, Barnyardgrass (barnyardgrass [2]; [6]): 90 | Plant response rating, Sedge, Umbrella (sedge, umbrella): 40

O=C1NCC(c2ccc(F)c(F)c2)C1C(=O)Nc1cccc(F)c1C(F)(F)F (stereo not drawn) [Compound 67]
Plant response rating, Morningglory (morningglory; [3]): 0 | Plant response rating, Morningglory (morningglory; [4]): 0 | Morningglory plant response rating (morningglory; 125 g ai/ha): 0 | Plant response rating, Morningglory (morningglory; [5]): 0 | Plant response rating, Crabgrass, Large (crabgrass, large; [3]): 50 | Plant response rating, Crabgrass, Large (crabgrass, large; [4]): 90 | Crabgrass, Large plant response rating (crabgrass, large; 125 g ai/ha): 90 | Plant response rating, Crabgrass, Large (crabgrass, large; [5]): 90 | Plant response rating, Corn (corn; [3]): 0 | Plant response rating, Corn (corn; [4]): 0 | Corn plant response rating (corn; 125 g ai/ha): 0 | Plant response rating, Corn (corn; [5]): 0 | Plant response rating, Foxtail, Giant (giant foxtail; [3]): 80 | Plant response rating, Foxtail, Giant (giant foxtail; [4]): 90 | Foxtail, Giant plant response rating (giant foxtail; 125 g ai/ha): 80 | Plant response rating, Foxtail, Giant (giant foxtail; [5]): 90 | Plant response rating, Barnyardgrass (barnyardgrass [1]): 0 | Plant response rating, Rice (rice): 0 | Plant response rating, Wheat (wheat; [3]): 0 | Plant response rating, Wheat (wheat; [4]): 0 | Wheat plant response rating (wheat; 125 g ai/ha): 0 | Plant response rating, Wheat (wheat; [5]): 0 | Plant response rating, Pigweed (pigweed; [3]): 0 | Plant response rating, Pigweed (pigweed; [4]): 20 | Pigweed plant response rating (pigweed; 125 g ai/ha): 0 | Plant response rating, Pigweed (pigweed; [5]): 0 | Plant response rating, Ducksalad (ducksalad): 70 | Plant response rating, Velvetleaf (velvetleaf; [3]): 0 | Plant response rating, Velvetleaf (velvetleaf; [4]): 0 | Velvetleaf plant response rating (velvetleaf; 125 g ai/ha): 0 | Plant response rating, Velvetleaf (velvetleaf; [5]): 0 | Plant response rating, Barnyardgrass (barnyardgrass [2]; [3]): 40 | Plant response rating, Barnyardgrass (barnyardgrass [2]; [4]): 60 | Barnyardgrass plant response rating (barnyardgrass [2]; 125 g ai/ha): 30 | Plant response rating, Barnyardgrass (barnyardgrass [2]; [6]): 70 | Plant response rating, Sedge, Umbrella (sedge, umbrella): 50
